Test results as given in BindingDB's records for doi:10.1016/0960-894X(96)00456-8 (1996).
pIC50: −log10 of the molar value.

Assay: Compound was evaluated for inhibitory activity against herpes simplex type 2 protease (HSV-2 pr).

With `O=C1OC(c2ccccc2)=N[C@@]12C[C@@H]2c1ccccc1` [(1R,3R)-1,5-Diphenyl-6-oxa-4-aza-spiro[2.4]hept-4-en-7-one] as the molecule, how does the pIC50 read?
The pIC50 was 6.15.

With `CC(=O)Oc1ccc([C@H]2C[C@@]23N=C(c2ccccc2)OC3=O)cc1` [Acetic acid 4-((1R,3R)-7-oxo-5-phenyl-6-oxa-4-aza-spiro[2.4]hept-4-en-1-yl)-phenyl ester] as the molecule, how does the pIC50 read?
Its pIC50 is 5.92.
